These results are taken from US9718790B2, “Triazine derivative and pharmaceutical composition having an analgesic activity comprising the same” (SHIONOGI & CO., LTD., priority 2010, dated 2017).

Assay [1] concerns partial sciatic nerve ligation model in rats. Kind of assay: Analgesic effect in a Seltzer model, Evaluation (1): mechanical allodynia, von Frey filaments. It is filed as in vivo. Particulars: rat, oral single administration, at 3 hours, read-out: analgesic effect, percent reversal of mechanical allodynia. The source says: Rats were anaesthetized using isoflurane/O2 inhalation anaesthesia. After induction of anesthesia, the left thigh was shaved. An incision was made in the skin just below the hip bone. The muscle was bluntly dissected to expose the sciatic nerve. One third (⅓) to one half (½) of the sciatic nerve thickness was tightly ligated and the wound was closed. The right thigh is used as a sham-operated control. The right thigh undergoes an identical procedure with the left hind limb, however, the sciatic nerve is not manipulated or ligated.
Two weeks after nerve ligation, the effect on mechanical allodynia was assessed using a series of von Frey filaments. For habituation, the rats were placed into a plastic cage on a wire mesh bottom. The mechanical sensitivity (mechanical threshold) of the hind paws was estimated with a series of von Frey filaments (0.4-20 g). The measurement of mechanical sensitivity of the right and left hind paws was performed to obtain predose mechanical sensitivity. The rats showing thee threshold change from 0.6 to 2 g (in nerve ligated side) and 8 to 15 g (in sham operated side) were used in the experiments. On the day belone the experiment, the rats were evaluated with a series of von Frey filaments to familiarize them with the test procedure. The adopted animal was administrated with the test compounds. The test compounds were homogenized with mortar and pestle and suspended or diluted in 0.5% Methyl Cellulose to prepare 0.1-2.0 mg/mL/kg suspension and orally administered to rat using a syringe attached with a sonde. Post-dose mechanical sensitivities of the right and left hind paws were measured at approximately 1 to 5 hours after drug administration. Percent reversal of mechanical allodynia for each rat was calculated using the following formula. The analgesic effects of the compounds were compared.

A further assay concerns the target CYP3A4 (Homo sapiens (Human), UniProt P08684). Kind of assay: CYP3A4 fluorescent MBI test. It is filed as in vitro ADME. Particulars: substrate 7-BFC, pre-reaction time 0 or 30 minutes. On the procedure: The CYP3A4 fluorescent MBI test is a test of investigating enhancement or CYP3A4 inhibition of a compound by a metabolism reaction, and the test was performed using, as CYP3A4 enzyme expressed in Escherichia coli and employlng, as an index, a reaction in which 7-benzyloxytrifluoromethylchmarin (BFC) is debenzylated by the CYP3A4 enzyme to produce a metabolite, 7-hydroxytrifluoromethylchmarin (HFC) emitting fluorescent light.
The reaction conditions were as follows: substrate, 5.6 μmol/L 7-BFC; pre-reaction time, 0 or 30 minutes; reaction time, 15 minutes; reaction temperature, 25° C.
An enzyme in a K-Pi buffer (pH 7.4) and a test drug solution as a pre-reaction. solution were added to a 96-well plate at the composition of the pre-reaction, a part of it was transferred to another 96-well plate so that it was 1/10 diluted by a substrate in a K-Pi buffer, NADPH as a co-factor was added to initiate a reaction as an index (without preincubation) and, after a predetermined time of a reaction, acetonitrile:0.5 mol/L Tris (trishydroxyaminomethane)=4:1 was added to stop the reaction. […] For the plate on which each index reaction had been performed, a fluorescent value of 7-HFC which is a metabolite was measured with a fluorescent plate reader. […]

Chain of CYP3A4 (P08684 whole entry): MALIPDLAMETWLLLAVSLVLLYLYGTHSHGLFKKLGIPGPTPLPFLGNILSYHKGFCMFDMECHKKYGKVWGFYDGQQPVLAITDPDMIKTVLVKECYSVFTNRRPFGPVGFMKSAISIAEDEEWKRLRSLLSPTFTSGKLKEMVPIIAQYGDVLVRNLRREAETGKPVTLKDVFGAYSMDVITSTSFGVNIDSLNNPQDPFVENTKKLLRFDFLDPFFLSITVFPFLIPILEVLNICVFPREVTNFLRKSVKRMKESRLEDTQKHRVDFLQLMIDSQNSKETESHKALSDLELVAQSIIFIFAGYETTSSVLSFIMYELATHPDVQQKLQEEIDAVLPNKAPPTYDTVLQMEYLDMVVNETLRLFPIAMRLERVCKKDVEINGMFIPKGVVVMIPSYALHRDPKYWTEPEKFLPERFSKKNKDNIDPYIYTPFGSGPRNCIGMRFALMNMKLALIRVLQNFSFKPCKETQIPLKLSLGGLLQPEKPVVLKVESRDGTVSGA

`O=c1[nH]/c(=N\c2ccc(Oc3ccon3)cc2)n(Cc2ccc(Cl)cc2)c(=O)n1CC(CO)CO` [Compound I-2291]: in assay [1], the inhibition in vivo at 3 mg/kg was over 30%.
By IC50 is commonly meant the concentration that gives 50% inhibition. High values mean weaker potency, low ones greater potency. At CYP3A4, `C[C@@H](Cn1c(=O)[nH]/c(=N\c2ccc(OCC3CC3)cc2)n(Cc2ccc(Cl)cc2)c1=O)C(=O)O` [Compound I-0837] displayed a half-maximal inhibitory concentration (IC50) of at most 3 µM.
